Laboratory results published in patent US4649147A, “Treating elastin degradation with 1-(alkenoyl)azacycloalkyl carboxylic acids and derivatives” (G. D. Searle & Co., priority 1985, dated 1987).

Tests used:
human leukocyte elastase = molecular target: T1, human leukocyte elastase (Homo sapiens, UniProt P08246); assay: Inhibition of hydrolysis of methoxysuccinyl-ala-ala-pro-val-nitroanilide by human leukocyte elastase; assay type: biochemical; conditions: for IC50: human leukocyte elastase, MSN substrate
T1 sequence (P08246 30-267): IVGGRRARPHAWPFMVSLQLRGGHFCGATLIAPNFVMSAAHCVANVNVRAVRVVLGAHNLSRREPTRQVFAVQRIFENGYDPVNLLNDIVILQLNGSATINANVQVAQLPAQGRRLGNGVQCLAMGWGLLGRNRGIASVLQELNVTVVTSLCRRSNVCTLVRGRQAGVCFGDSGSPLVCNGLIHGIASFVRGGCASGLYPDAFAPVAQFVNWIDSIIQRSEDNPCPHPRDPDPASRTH
From the text: The compounds useful in practicing the method of the invention are inhibitors of leucocyte elastase and cathepsin G. Since elastase is involved in the breakdown of elastin and subsequently involved in a number of disease states, a compound which blocks the action of elastase will be useful in the management, treatment and prevention of such diseases. […] Nakajima, K., et al., J. Biol. Chem., 254, 4027 (1979). This is useful in measuring inhibition of elastase because the hydrolysis of MSN is easily quantitated by measuring the release of p-nitroaniline spectrophotometrically. Therefore, the degree of elastase inhibition can be readily measured by noting the rate of inhibition of the hydrolysis of MSN. The compounds of the invention are therefore tested in vitro as follows. The rate of hydrolysis of methoxysuccinyl-ala-ala-pro-val-nitroanalide by human leukocyte elastase is monitored spectrophotometrically in the presence and absence of test compound. The inhibition of the enzymatic reaction by 20% or more at a given concentration of test compound is taken as positive inhibition of elastase. IC50 values are then determined.

[1] = molecular target: mammalian prolyl-4-hydroxylase (Homo sapiens, UniProt P13674); assay: In vitro prolyl-4-hydroxylase inhibition; assay type: biochemical; conditions: purified mammalian enzyme
From the text: Fibrosis is a connective tissue disease characterized by overaccumulation of extracellular fibrous matrix components, particularly collagen. Since prolyl hydroxylation is required for active secretion and thermal stability of collagen, fibrosis could be treated by inhibitors of prolyl-4-hydroxylase, such as the compounds of this invention. See G. C. Fuller, J. Med. Chem., 24, 651-658 (1981). The following procedure is used to test the compounds in vitro for prolyl-4-hydroxylase inhibition.
Purified mammalian prolyl-4-hydroxylase [EC 1.14.11.2:prolyl-glycyl-peptide, 2-oxyglutarate: oxidoreductase] is incubated with substrates (i.e., native unhydroxylated collagen of either 60,000 molecular weight, Km 10^-8 M; or 90,000 molecular weight, Km 10^-11 M), α-ketoglutarate, oxygen, and enzyme cofactors, with or without the test compounds. End-point is determined by measuring release of tritiated water during the hydroxylation of H^3 -peptidyl proline or release of ^14 CO2 formed from the coupled decarboxylation of ^14 C-α-ketoglutarate. Data are reported as percent inhibition with test compound at a given concentration relative to the control assays without test compound.

[2] = tested on: bleomycin-induced lung fibrosis; assay: Bleomycin-induced lung fibrosis in male syrian hamsters; assay type: in vivo, syrian hamster; conditions: 100 mg/kg, day 21 relative to untreated animals
From the text: The procedure described by Kelley et al., J. Lab. Clin. Med., 96, 954-964 (1980), is used to test the compounds in vivo for activity against bleomycin-induced lung fibrosis in male syrian hamsters. […] Activities are reported as percent inhibitions at day 21 relative to untreated animals.

Sequence of mammalian prolyl-4-hydroxylase (P13674 18-534): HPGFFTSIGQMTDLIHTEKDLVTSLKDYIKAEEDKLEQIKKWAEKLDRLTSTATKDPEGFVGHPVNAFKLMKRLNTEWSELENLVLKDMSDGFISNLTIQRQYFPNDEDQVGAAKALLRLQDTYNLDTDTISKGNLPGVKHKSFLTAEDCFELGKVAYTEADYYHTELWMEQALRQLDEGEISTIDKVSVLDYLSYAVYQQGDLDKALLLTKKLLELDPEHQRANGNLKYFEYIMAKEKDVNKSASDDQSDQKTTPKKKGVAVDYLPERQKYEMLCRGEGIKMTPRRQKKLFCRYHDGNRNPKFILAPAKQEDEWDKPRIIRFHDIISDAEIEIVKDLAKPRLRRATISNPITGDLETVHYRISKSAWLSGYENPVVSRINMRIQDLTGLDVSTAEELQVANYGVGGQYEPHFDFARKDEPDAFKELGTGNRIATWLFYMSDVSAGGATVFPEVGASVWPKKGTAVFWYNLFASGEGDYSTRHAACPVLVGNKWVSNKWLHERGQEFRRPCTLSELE
Sequence of mammalian prolyl-4-hydroxylase (P07237 18-508 partner): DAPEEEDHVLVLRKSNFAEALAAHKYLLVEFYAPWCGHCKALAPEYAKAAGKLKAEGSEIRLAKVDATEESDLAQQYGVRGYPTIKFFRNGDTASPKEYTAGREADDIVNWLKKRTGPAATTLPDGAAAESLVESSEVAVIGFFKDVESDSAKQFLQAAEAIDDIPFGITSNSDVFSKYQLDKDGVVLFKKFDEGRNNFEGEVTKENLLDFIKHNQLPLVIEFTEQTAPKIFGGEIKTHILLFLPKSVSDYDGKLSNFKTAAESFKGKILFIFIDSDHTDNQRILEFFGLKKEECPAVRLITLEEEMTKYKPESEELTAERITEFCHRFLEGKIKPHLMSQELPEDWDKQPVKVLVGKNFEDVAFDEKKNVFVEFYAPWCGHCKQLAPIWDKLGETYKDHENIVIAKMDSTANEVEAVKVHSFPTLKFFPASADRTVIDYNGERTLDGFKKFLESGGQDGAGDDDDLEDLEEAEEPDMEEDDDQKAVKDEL

## CCCCCCCC/C=C\CCCCCCCC(=O)N1CCC[C@H]1C(=O)O [Example 1, 1-(1-oxo-9Z-octadecenyl)proline]
Human leukocyte elastase
  IC50: 7.8 µM
[1]
  IC50: 4.4 µM

## CCCCCCCC/C=C\CCCCCCCC(=O)N1CCCC(C(=O)O)C1 (stereo not shown) [Example 2, 1-(1-oxo-9Z-ocadecenyl)-3-piperidinecarboxylic acid]
Human leukocyte elastase
  IC50: 3.4 µM
[1]
  IC50: 5.9 µM

## CCCCCCCC/C=C\CCCCCCCC(=O)N1CCC(C(=O)O)CC1 [Example 3, 1-(1-oxo-9Z-octadecenyl)-4-piperidinecarboxylic acid]
Human leukocyte elastase
  IC50: 4.6 µM
[1]
  IC50: 9 µM

## CCCCCCCC/C=C\CCCCCCCC(=O)N1CCC(C(=O)OCC)(c2ccccc2)CC1 [Example 4, ethyl 1-(1-oxo-9Z-octadecenyl)-4-phenyl-4-piperidinecarboxylate]
Human leukocyte elastase; at 20 mcM
  inhibition against elastase: 22%

## CCCCCCCC/C=C\CCCCCCCC(=O)N1CCC(C(=O)O)(c2ccccc2)CC1 [Example 5, 1-(1-oxo-9Z-octadecenyl)-4-phenyl-4-piperidinecarboxylic acid]
Human leukocyte elastase
  IC50: 1.2 µM

## CCCCCCCC/C=C\CCCCCCCC(=O)N1CCC[C@H]1C(=O)OC [Example 6, 1-(1-oxo-9Z-octadecenyl)proline methyl ester]
[2]
  Bleomycin-induced Fibrosis, % Inhib. of Hydroxyproline: 30.1%
  Bleomycin-induced Fibrosis, % Inhib. of Lung wt./body wt.: 33.0%
